Data as given in patent US20060199832A1, “Use of non-immunosupressive pipecolic acid derivatives for inducing chondrogenic differentiation” (Astellas Pharma Inc., priority 2003, published 2006).

Tested on: ATDC5 cells
Assay: Induction of chondrogenic differentiation of ATDC5 cells (Alcian blue staining of proteoglycan)
Format: cell-based
Conditions: ATDC5 cells incubated for 24 days; compound (1) at 1-10000 ng/ml; results in FIG. 1
Description: The inducing activity by the compound (1) on chondrogenic differentiation was evaluated in accordance with the below-mentioned method.
(1) The ATDC5 cell line provided by RIKEN Cell Bank (Tsukuba, Japan) was grown in a 1:1 mixture of Dulbecco's modified Eagle's medium and Ham's F12 medium (Nikken Biomedical Laboratory, Kyoto, Japan) supplemented with 10% heat-inactivated fetal bovine serum (Intergen, Purchase, N.Y.).
(2) The above ATDC5 cells were plated in 12-multiwell plastic plate at a density of 1×10^5 cells/well in the medium. After 4 hr, the medium was replaced with fresh medium containing the compound (1) or Cyclosporin A (CsA), and the culture was continued for a 24 days with medium change every 2 or 3 days. Cells were fixed with methanol and stained 0.1% Alcian blue (Sigma Chemical Co., St. Louis, Mo.) dissolved in 0.1 M hydrochloric acid for 16 hr at room temperature. Cells were then rinsed three times with distilled water, and the amount of cell-associated dye was measured at 620 nm after extraction with 6 M guanidine-HCl (300 μl/well)
ATDC5 cells were incubated with the compound (1) or CsA for 24 days and the amount of proteoglycan was assayed.

Compound	chondrogenic differentiation (amount of proteoglycan, cell-associated Alcian blue dye measured at 620 nm)
Cyclosporin A [CsA]	did not induce the differentiation
COC1CC(/C=C(\C)C2OC(=O)C3CCCCN3C(=O)C(=O)C3(O)OC(C(OC)CC(C)C/C(C)=C/C(CC(C)=O)C(=O)CC(O)C2C)C(OC)CC3C)CCC1O (centres unmarked) [compound (1)]	induced differentiation into chondrocyte in a concentration-dependent manner
